This note sets out measurements from ChEMBL document CHEMBL4339230, “X-ray Crystallography Deciphers the Activity of Broad-Spectrum Boronic Acid β-Lactamase Inhibitors” (ACS Med Chem Lett, 2019).

The Ki is a dissociation constant, usually derived from enzyme kinetics or from competition with a known ligand.

The nature of assay [1]: Inhibition of Pseudomonas aeruginosa AmpC expressed in Escherichia coli BL21(DE3) using cephalothin as reporter substrate incubated for 300 secs by spectrophotometric assay.
A short description of assay [2]: Competitive inhibition of recombinant GES-5 expressed in Escherichia coli BL21(DE3) using nitrocefin substrate by spectrophotometry.
Assay [3] is described as follows: Inhibition of bacterial OXA-24 using cephalothin as reporter substrate incubated for 300 secs by spectrophotometric assay. Details: species or system Bacteria.
Assay [4] is described as follows: Inhibition of bacterial NDM1 using cephalothin as reporter substrate incubated for 300 secs by spectrophotometric assay. Details: species or system Bacteria.
Assay [5] can be described thus: Inhibition of Klebsiella pneumoniae KPC2 using cephalothin as reporter substrate incubated for 300 secs by spectrophotometric assay.

For `O=CN(C=O)Cc1ccc2sc(B(O)O)cc2c1`, the values for the Ki in assay [1] and in assay [2] were 0.04 µM and 24 µM, respectively.
In the case of `CC(C)(C)OC(=O)c1cccc2cc(B(O)O)sc12`, the Ki was 1.3 µM in assay [1]; 27 µM in assay [3]; 17 µM in assay [2]; 3.2 µM in assay [4]; 3.2 µM in assay [5].
For the molecule `NCc1ccc2sc(B(O)O)cc2c1`, the Ki in assay [1] was determined as 0.05 µM; in assay [3], 96 µM; in assay [2], 15 µM; in assay [4] it was 5.5 µM; in assay [5], 4.4 µM.
The like results for `CC(C)(C)OC(=O)Nc1cccc2cc(B(O)O)sc12` were, in that order, 1.4 µM, 64 µM, 5.7 µM, 11 µM and 1.4 µM.
The like results for `OB(O)c1cc2cc(CBr)ccc2s1` were, in that order, 0.07 µM, 67 µM, 8.9 µM, 5.9 µM and 2.8 µM.
Taken in the same sequence, the figures for `O=C(O)c1cccc2cc(B(O)O)sc12` were 0.42 µM, 16 µM, 0.16 µM, 3 µM and 4.9 µM.
